From ChEMBL document CHEMBL1138401, “Novel nucleotide triphosphates as potent P2Y2 agonists with enhanced stability over UTP” (Bioorg Med Chem Lett, 2007)
pEC50: −log10 of the molar value.

Key:
[1] = Agonist activity at human cloned P2Y6 receptor expressed in human 1321N1 by FLIPR assay; type: functional
P2Y purinoceptor 1 = P2Y purinoceptor 1 (Homo sapiens, UniProt P47900); assay: Agonist activity at human cloned P2Y1 receptor expressed in human 1321N1 by FLIPR assay; type: functional
P2Y purinoceptor 2 = P2Y purinoceptor 2 (Homo sapiens, UniProt P41231); assay: Agonist activity at human P2Y2 receptor expressed in human 1321N1 by FLIPR assay; type: functional
P2Y purinoceptor 2, sequence (P41231 whole entry): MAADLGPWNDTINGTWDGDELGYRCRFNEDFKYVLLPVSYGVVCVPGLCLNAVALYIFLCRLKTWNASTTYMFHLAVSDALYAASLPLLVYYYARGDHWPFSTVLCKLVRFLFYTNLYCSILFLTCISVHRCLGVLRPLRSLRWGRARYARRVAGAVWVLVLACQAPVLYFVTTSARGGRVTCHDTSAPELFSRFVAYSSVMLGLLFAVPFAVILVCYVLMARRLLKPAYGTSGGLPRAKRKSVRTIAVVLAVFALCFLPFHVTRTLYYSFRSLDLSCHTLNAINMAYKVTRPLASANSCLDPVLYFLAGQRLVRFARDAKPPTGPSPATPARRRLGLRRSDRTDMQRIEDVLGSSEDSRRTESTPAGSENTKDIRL

P2Y purinoceptor 4 = P2Y purinoceptor 4 (Homo sapiens, UniProt P51582); assay: Agonist activity at human cloned P2Y4 receptor expressed in human 1321N1 by FLIPR assay; type: functional
P2Y purinoceptor 4, sequence (P51582 whole entry): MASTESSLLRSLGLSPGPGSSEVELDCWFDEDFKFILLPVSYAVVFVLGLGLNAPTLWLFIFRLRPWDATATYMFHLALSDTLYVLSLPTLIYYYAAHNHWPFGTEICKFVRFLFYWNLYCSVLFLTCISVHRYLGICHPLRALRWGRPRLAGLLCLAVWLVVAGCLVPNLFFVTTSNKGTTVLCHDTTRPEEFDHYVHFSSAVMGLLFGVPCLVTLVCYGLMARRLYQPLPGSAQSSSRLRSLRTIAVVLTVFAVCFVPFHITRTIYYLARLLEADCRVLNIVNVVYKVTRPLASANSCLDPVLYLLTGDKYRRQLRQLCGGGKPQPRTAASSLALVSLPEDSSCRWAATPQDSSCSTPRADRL

[2] = Metabolic stability in human bronchial epithelial cells after 180 mins; type: ADME, cell-based, Epithelial cell; settings: read-out: Stability
[3] = Metabolic stability in human bronchial epithelial cells after 120 mins; type: ADME, cell-based, Epithelial cell; settings: read-out: Stability

P2Y purinoceptor 1, sequence (P47900 whole entry): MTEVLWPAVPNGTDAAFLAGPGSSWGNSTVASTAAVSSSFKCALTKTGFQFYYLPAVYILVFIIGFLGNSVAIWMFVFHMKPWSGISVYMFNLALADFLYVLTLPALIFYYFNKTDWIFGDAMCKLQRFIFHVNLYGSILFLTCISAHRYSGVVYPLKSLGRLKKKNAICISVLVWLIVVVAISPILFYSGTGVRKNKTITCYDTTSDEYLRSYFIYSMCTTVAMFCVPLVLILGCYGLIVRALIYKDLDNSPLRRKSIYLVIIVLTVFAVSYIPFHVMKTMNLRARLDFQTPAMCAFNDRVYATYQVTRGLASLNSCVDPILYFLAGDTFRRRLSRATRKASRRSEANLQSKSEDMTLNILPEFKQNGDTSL

Compound | pEC50 [1] | pEC50 (P2Y purinoceptor 1) | pEC50 (P2Y purinoceptor 2) | pEC50 (P2Y purinoceptor 4) | remaining at 3 h [2] [%] | remaining at 2 h [3] [%]
O=c1ccn([C@@H]2O[C@H](COP(=O)(O)OP(=O)(O)OP(=O)(O)O)[C@@H](O)[C@H]2O)c(=O)[nH]1 [URIDINE TRIPHOSPHATE] | 6.37 | < 5.70 |  |  |  | 
O=P(O)(O)OP(=O)(O)OP(=O)(O)OC[C@H]1O[C@@H](c2nc3cc(C(F)(F)F)ccc3s2)[C@H](O)[C@@H]1O | < 4.70 | < 4.70 | 8.00 | < 4.70 |  | 
COc1ccc2nc([C@@H]3O[C@H](COP(=O)(O)OP(=O)(O)OP(=O)(O)O)[C@@H](O)[C@H]3O)sc2c1 |  |  | 7.38 |  |  | 
O=P(O)(O)OP(=O)(O)OP(=O)(O)OC[C@H]1O[C@@H](c2nc3c(F)cc(Cl)cc3s2)[C@H](O)[C@@H]1O | < 4.70 | < 4.70 | 8.15 | 5.37 |  | 
O=c1c2cc(F)ccc2ccn1[C@@H]1O[C@H](COP(=O)(O)OP(=O)(O)OP(=O)(O)O)[C@@H](O)[C@H]1O |  |  |  |  | 50 | 70

Now from value to compound:

pEC50 [1] | pEC50 (P2Y purinoceptor 1) | pEC50 (P2Y purinoceptor 2) | pEC50 (P2Y purinoceptor 4) | remaining at 3 h [2] [%] | remaining at 2 h [3] [%] | Compound
 |  | 6.41 |  |  |  | Cc1ccc2oc([C@@H]3O[C@H](COP(=O)(O)OP(=O)(O)OP(=O)(O)O)[C@@H](O)[C@H]3O)nc2c1
< 4.70 | < 4.70 | 7.66 | 5.38 | 20 | 50 | O=P(O)(O)OP(=O)(O)OP(=O)(O)OC[C@H]1O[C@@H](c2nc3ccccc3s2)[C@H](O)[C@@H]1O
 |  | 6.15 |  |  |  | COc1cccc2sc([C@@H]3O[C@H](COP(=O)(O)OP(=O)(O)OP(=O)(O)O)[C@@H](O)[C@H]3O)nc12
 |  | 6.70 |  |  |  | Cn1c([C@@H]2O[C@H](COP(=O)(O)OP(=O)(O)OP(=O)(O)O)[C@@H](O)[C@H]2O)nc2ccccc21
 |  | 8.10 |  |  |  | O=P(O)(O)OP(=O)(O)OP(=O)(O)OC[C@H]1O[C@@H](c2nc3ccc(Cl)cc3s2)[C@H](O)[C@@H]1O
 |  | 8.52 |  |  |  | O=P(O)(O)OP(=O)(O)OP(=O)(O)OC[C@H]1O[C@@H](c2nc3cc(F)ccc3s2)[C@H](O)[C@@H]1O
